# System: HIV
# Test: Table 1 IC50 of the examples (assay method not given; patent concerns inhibiting HIV replication)
# Format: cell-based
# Settings: Human immunodeficiency virus 1
row,Structure (SMILES),IC50
1,"Cc1ccc(-c2c3c(cc(C)c2[C@H](OC(C)(C)C)C(=O)O)N(C(=O)Cc2ccc(F)c(F)c2)CC3)cc1 [Example 34, (S)-2-(tert-Butoxy)-2-(1-(2-(3,4-difluorophenyl)acetyl)-6-methyl-4-(p-tolyl)indolin-5-yl)acetic acid]",69 nM
2,"Cc1cc(F)cc(C(=O)N2CCc3c2cc(C)c([C@H](OC(C)(C)C)C(=O)O)c3-c2cc(F)c3c(c2C)CCCO3)c1 (atropisomer, axis not shown) [Example 97, (S)-2-(tert-Butoxy)-2-((R)-1-(3-fluoro-5-methylbenzoyl)-4-(8-fluoro-5-methylchroman-6-yl)-6-methylindolin-5-yl)acetic acid]",6 nM
3,"COc1cc(C(=O)N2CCc3c2cc(C)c([C@H](OC(C)(C)C)C(=O)O)c3-c2cc(F)c3c(c2C)CCCO3)ccc1C(F)(F)F (atropisomer, axis not shown) [Example 176, (S)-2-(tert-Butoxy)-2-((R)-4-(8-Fluoro-5-methylchroman-6-yl)-1-(3-methoxy-4-(trifluoromethyl)benzoyl)-6-methylindolin-5-yl)acetic acid]",5 nM
4,"Cc1ccc(-c2c3c(cc(C)c2C(OC(C)(C)C)C(=O)O)N(C(=O)c2ccc(F)c(F)c2)CC3)cc1 (stereo not drawn) [Example 3, 2-(tert-Butoxy)-2-(1-(3,4-difluorobenzoyl)-6-methyl-4-(p-tolyl)indolin-5-yl)acetic acid]",12 nM
5,"Cc1cc(Cl)ccc1C(=O)N1CCc2c1cc(C)c([C@H](OC(C)(C)C)C(=O)O)c2-c1cc(F)c2c(c1C)CCCO2 (atropisomer, axis not shown) [Example 47, (S)-2-(tert-Butoxy)-2-((R)-1-(4-chloro-2-methylbenzoyl)-4-(8-fluoro-5-methylchroman-6-yl)-6-methylindolin-5-yl)acetic acid]",4 nM
6,"COc1ccc(C(=O)n2ccc3c(-c4cc(F)c5c(c4C)CCCO5)c([C@H](OC(C)(C)C)C(=O)O)c(C)cc32)cc1C [Example 202, (S)-2-(tert-Butoxy)-2-((R)-4-(8-Fluoro-5-methylchroman-6-yl)-1-(4-methoxy-3-methylbenzoyl)-6-methyl-1H-indol-5-yl)acetic acid]",93 nM
7,"Cc1ccc(C(=O)N2c3cc(C)c([C@H](OC(C)(C)C)C(=O)O)c(-c4cc(F)c5c(c4C)CCCO5)c3CC2(C)C)cn1 (atropisomer, axis not shown) [Example 204, (S)-2-(tert-Butoxy)-2-((R)-4-(8-Fluoro-5-methylchroman-6-yl)-2,2,6-trimethyl-1-(6-methylnicotinoyl)indolin-5-yl)acetic acid]",19 nM
8,"Cc1cc2c(c(-c3cc(F)c4c(c3C)CCCO4)c1C(OC(C)(C)C)C(=O)O)CCN2Cc1ccc(F)c(F)c1 (stereo not drawn) [Example 2, 2-(tert-Butoxy)-2-(1-(3,4-difluorobenzyl)-4-(8-fluoro-5-methylchroman-6-yl)-6-methylindolin-5-yl)acetic acid]",330 nM
9,"COc1ccc(C(=O)N2CCc3c2cc(C)c([C@H](OC(C)(C)C)C(=O)O)c3-c2ccc3c(c2C)CCCO3)c(OC)c1 (atropisomer, axis not shown) [Example 185, (S)-2-(tert-Butoxy)-2-((R)-1-(2,4-dimethoxybenzoyl)-6-methyl-4-(5-methylchroman-6-yl)indolin-5-yl)acetic acid]",9 nM
10,"COc1ccc(C(=O)N2CCc3c2cc(C)c([C@H](OC(C)(C)C)C(=O)O)c3-c2cc(F)c3c(c2C)CCCO3)c(OC)c1OC (atropisomer, axis not shown) [Example 126, (S)-2-(tert-Butoxy)-2-((R)-4-(8-fluoro-5-methylchroman-6-yl)-6-methyl-1-(2,3,4-trimethoxybenzoyl)indolin-5-yl)acetic acid]",5 nM
11,"Cc1cc2c(ccn2Cc2ccc(F)c(F)c2)c(-c2cc(F)c3c(c2C)CCCO3)c1[C@H](OC(C)(C)C)C(=O)O (atropisomer, axis not shown) [Example 198, (S)-2-(tert-Butoxy)-2-((R)-1-(3,4-difluorobenzyl)-4-(8-fluoro-5-methylchroman-6-yl)-6-methyl-1H-indol-5-yl)acetic acid]",150 nM
12,"Cc1ccc(C(=O)N2CCc3c2cc(C)c([C@H](OC(C)(C)C)C(=O)O)c3-c2cc(F)c3c(c2C)CCCO3)cc1C(F)(F)F (atropisomer, axis not shown) [Example 146, (S)-2-(tert-Butoxy)-2-((R)-4-(8-fluoro-5-methylchroman-6-yl)-6-methyl-1-(4-methyl-3-(trifluoromethyl)benzoyl)indolin-5-yl)acetic acid]",5 nM
13,"COc1cc(C)cc(C(=O)N2CCc3c2cc(C)c([C@H](OC(C)(C)C)C(=O)O)c3-c2cc(F)c3c(c2C)CCCO3)c1 (atropisomer, axis not shown) [Example 89, (S)-2-(tert-Butoxy)-2-((R)-4-(8-fluoro-5-methylchroman-6-yl)-1-(3-methoxy-5-methylbenzoyl)-6-methylindolin-5-yl)acetic acid]",3 nM
14,"Cc1ccc(-c2c3c(cc(C)c2C(OC(C)(C)C)C(=O)O)N(CC(=O)c2ccccc2)CCC3)cc1 (stereo not drawn) [Example 207, 2-(tert-Butoxy)-2-(7-methyl-1-(2-oxo-2-phenylethyl)-5-(p-tolyl)-1,2,3,4-tetrahydroquinolin-6-yl)acetic acid]",3500 nM
15,"Cc1cc2c(c(-c3cc(F)c4c(c3C)CCCO4)c1[C@H](OC(C)(C)C)C(=O)O)CCN2C(=O)c1ccc(Cl)cc1C(F)(F)F (atropisomer, axis not shown) [Example 156, (S)-2-(tert-Butoxy)-2-((R)-1-(4-chloro-2-(trifluoromethyl)benzoyl)-4-(8-fluoro-5-methylchroman-6-yl)-6-methylindolin-5-yl)acetic acid]",5 nM
16,"Cc1ccc(-c2c3c(cc(C)c2[C@H](OC(C)(C)C)C(=O)O)N(C(=O)c2ccncc2)CC3)cc1 [Example 40, (S)-2-(tert-Butoxy)-2-(1-isonicotinoyl-6-methyl-4-(p-tolyl)indolin-5-yl)acetic acid]",283 nM
17,"COc1ccc(C)c(C(=O)N2CCc3c2cc(C)c([C@H](OC(C)(C)C)C(=O)O)c3-c2cc(F)c3c(c2C)CCCO3)c1 (atropisomer, axis not shown) [Example 107, (S)-2-(tert-Butoxy)-2-((R)-4-(8-fluoro-5-methylchroman-6-yl)-1-(5-methoxy-2-methylbenzoyl)-6-methylindolin-5-yl)acetic acid]",5 nM
18,"Cc1ccccc1C(=O)N1CCc2c1cc(C)c([C@H](OC(C)(C)C)C(=O)O)c2-c1cc(F)c2c(c1C)CCCO2 (atropisomer, axis not shown) [Example 53, (S)-2-(tert-Butoxy)-2-((R)-4-(8-fluoro-5-methylchroman-6-yl)-6-methyl-1-(2-methylbenzoyl)indolin-5-yl)acetic acid]",3 nM
19,"Cc1ccc(-c2c3c(cc(C)c2[C@H](OC(C)(C)C)C(=O)O)N(C(=O)c2ccc(F)cc2C)CC3)cc1 [Example 44, (S)-2-(tert-Butoxy)-2-(1-(4-fluoro-2-methylbenzoyl)-6-methyl-4-(p-tolyl)indolin-5-yl)acetic acid]",6 nM
20,"COc1ccc(C(=O)N2CCc3c2cc(C)c([C@H](OC(C)(C)C)C(=O)O)c3-c2ccc3c(c2C)CCCO3)cc1C (atropisomer, axis not shown) [Example 190, (S)-2-(tert-Butoxy)-2-((R)-1-(4-methoxy-3-methylbenzoyl)-6-methyl-4-(5-methylchroman-6-yl)indolin-5-yl)acetic acid]",124 nM
21,"Cc1cc2c(c(-c3cc(F)c4c(c3C)CCCO4)c1[C@H](OC(C)(C)C)C(=O)O)CCN2C(=O)c1cc(Cl)ccc1F (atropisomer, axis not shown) [Example 145, (S)-2-(tert-Butoxy)-2-((R)-1-(5-chloro-2-fluorobenzoyl)-4-(8-fluoro-5-methylchroman-6-yl)-6-methylindolin-5-yl)acetic acid]",14 nM
22,"COc1c(F)cccc1C(=O)N1CCc2c1cc(C)c([C@H](OC(C)(C)C)C(=O)O)c2-c1ccc2c(c1C)CCCO2 (atropisomer, axis not shown) [Example 181, (S)-2-(tert-Butoxy)-2-((R)-1-(3-fluoro-2-methoxybenzoyl)-6-methyl-4-(5-methylchroman-6-yl)indolin-5-yl)acetic acid]",2 nM
23,"Cc1cc2c(c(-c3cc(F)c4c(c3C)CCCO4)c1[C@H](OC(C)(C)C)C(=O)O)CCN2C(=O)c1cccc2c1OCCC2 (atropisomer, axis not shown) [Example 166, (S)-2-(tert-butoxy)-2-((R)-1-(chromane-8-carbonyl)-4-(8-fluoro-5-methylchroman-6-yl)-6-methylindolin-5-yl)acetic acid]",4 nM
24,"Cc1ccc(C(=O)N2CCc3c2cc(C)c([C@H](OC(C)(C)C)C(=O)O)c3-c2cc(F)c3c(c2C)CCCO3)cn1 (atropisomer, axis not shown) [Example 116, (S)-2-(tert-Butoxy)-2-((R)-4-(8-fluoro-5-methylchroman-6-yl)-6-methyl-1-(6-methylnicotinoyl)indolin-5-yl)acetic acid]",11 nM
25,"Cc1ccc(C(=O)N2CCc3c2cc(C)c([C@H](OC(C)(C)C)C(=O)O)c3-c2cc(F)c3c(c2C)CCCO3)cc1F (atropisomer, axis not shown) [Example 73, (S)-2-(tert-Butoxy)-2-((R)-1-(3-fluoro-4-methylbenzoyl)-4-(8-fluoro-5-methylchroman-6-yl)-6-methylindolin-5-yl)acetic acid]",6 nM
26,"Cc1ccc(-c2c3c(cc(C)c2[C@H](OC(C)(C)C)C(=O)O)N(C(=O)C2CCCCC2)CC3)cc1 [Example 41, (S)-2-(tert-Butoxy)-2-(1-(cyclohexanecarbonyl)-6-methyl-4-(p-tolyl)indolin-5-yl)acetic acid]",17 nM
27,"Cc1cc2c(c(-c3cc(F)c4c(c3C)CCCO4)c1[C@H](OC(C)(C)C)C(=O)O)CCN2C(=O)c1cccc2c1OCCO2 (atropisomer, axis not shown) [Example 83, (S)-2-(tert-Butoxy)-2-((R)-1-(2,3-dihydrobenzo[b][1,4]dioxine-5-carbonyl)-4-(8-fluoro-5-methylchroman-6-yl)-6-methylindolin-5-yl)acetic acid]",7 nM

# — patent US20190284136A1, “INDOLINE DERIVATIVES” (ViiV HEALTHCARE UK LIMITED, priority 2016, published 2019)
